Data on seven compounds can be found in patent US8513236B2 (Laurus Labs Private Limited, priority 2010, dated 2013).

“Also recorded” adds a separate entry of the source.

Series [1] in a line: Relative humidity stability at ambient temperature, analyzed by XRPD. The class given is physicochemical. The text has this:
Upon completion of the duration allowed, the samples were immediately analyzed by XRPD.

A short description of series [2]: Slurrying in water, resulting solid form. The class given is physicochemical. As to conditions: for result of slurrying in water: three days.
Series [3] concerns hyperglycemic rats. The following applies: cited from earlier work.
The test system of series [4] is cancer cell lines. As to conditions: in vitro; cited from earlier work.
For series [5] the following is noted: cited from earlier work.
For series [6] the following is noted: cited from earlier work. The source holds these as a separate data set.
Series [7] is described as follows: Intrinsic dissolution in 900 mL water at ambient conditions (attempted). The following applies: after 30 minutes. The class given is physicochemical. The protocol:
Intrinsic dissolution in 900 mL water at ambient conditions was also attempted. […] Therefore, a concentration vs. time and intrinsic dissolution rate value were unobtainable at these conditions.

For `Cn1c(=O)c2c(ncn2C)n(C)c1=O` [caffeine], the Results entry in series [1] (75% RH, 1 week) is reported as “caffeine anhydrous”; in series [1] (75% RH, 4 weeks), “does not display signs of conversion; also recorded: caffeine anhydrous”; in series [1] (75% RH, 1 day), “caffeine anhydrous”; in series [1] (75% RH, 3 days), “caffeine anhydrous”; in series [1] (94% RH, 1 week (7 days)), “caffeine hydrate”; in series [1] (94% RH, 4 weeks), “caffeine hydrate”. Moreover, the Results result in series [1] (94% RH, 1 day) is on record as “caffeine anhydrous”; in series [1] (94% RH, 3 days), “caffeine anhydrous/caffeine hydrate”; in series [1] (98% RH, 1 week), “caffeine hydrate”; in series [1] (98% RH, 4 weeks), “caffeine hydrate”; in series [1] (98% RH, 1 day), “caffeine hydrate”; in series [1] (98% RH, 3 days) it was “caffeine hydrate”. Moreover, the conversion to hydrate result is “partial conversion” in series [1] (94% RH, between one and three days); “converts to caffeine hydrate” in series [1] (98% RH, in less than one day).

Consider `COc1cc(/C=C/c2ccc(O)cc2)cc(OC)c1.Cn1c(=O)c2c(ncn2C)n(C)c1=O` [cocrystal 1 (Form I), pterostilbene:caffeine], for which the Results entry is listed as “cocrystal 1 (Form I), no caffeine hydrate” in series [1] (75% RH, 1 week); “cocrystal 1 (Form I), no caffeine hydrate” in series [1] (75% RH, 1 week, additional stress at 98% RH); “cocrystal 1 (Form I), no caffeine hydrate” in series [1] (75% RH, 4 weeks); “cocrystal 1 (Form I), no caffeine hydrate” in series [1] (75% RH, 1 day); “cocrystal 1 (Form I), no caffeine hydrate” in series [1] (75% RH, 1 day, additional stress at 98% RH); “cocrystal1 (Form I), no caffeine hydrate” in series [1] (75% RH, 3 days). Further, the Results entry in series [1] (94% RH, 1 week (7 days)) is “cocrystal 1 (Form I), no caffeine hydrate”; in series [1] (94% RH, 4 weeks) it was “cocrystal 1 (Form I), no caffeine hydrate”; in series [1] (94% RH, 1 day) it was “cocrystal 1 (Form I), no caffeine hydrate”; in series [1] (94% RH, 3 days), “cocrystal 1 (Form I), no caffeine hydrate”; in series [1] (94% RH, 7 days, additional stress at 98% RH, 4 weeks) it was “cocrystal 1 (Form I), no caffeine hydrate”; in series [2] (slurry, 2 days) it was “cocrystal 1 (Form I), no caffeine hydrate”. Further, in series [2], the “result of slurrying in water” value is on record as “precipitation of pterostilbene”.

For `COc1cc(/C=C/c2ccc(O)cc2)cc(OC)c1.Cn1c(=O)c2c(ncn2C)n(C)c1=O` [cocrystal 1, pterostilbene:caffeine], the Results result is reported as “no dissociation” in series [1] (75% RH, 4 weeks); “no dissociation” in series [1] (94% RH, 4 weeks); “no dissociation” in series [1] (98% RH, 4 weeks).

Regarding `CN(C)C(=N)N=C(N)N` [metformin], the “decreased plasma glucose levels” value in series [3] was 48%.

In the case of `COc1cc(/C=C/c2ccc(O)cc2)cc(OC)c1` [pterostilbene, trans-3,5-dimethoxy-4′-hydroxystilbene], the “cytotoxic activity against cancer cell lines” value in series [4] is reported as “cytotoxic activity”. Besides, the Results entry in series [1] (75% RH, 4 weeks) is recorded as “pterostilbene (Form I)”; in series [1] (94% RH, 4 weeks), “pterostilbene (Form I)”; in series [1] (98% RH, 4 weeks), “pterostilbene (Form I)”. In series [5], the bioavailability entry is listed as “poor bioavailability”. In series [6], the solubility in water result was “poor solubility in water”.

“pterostilbene:carbamazepine [cocrystal 2]”: in series [2], the “result of slurrying in water” value is given as “stable”.

“pterostilbene:glutaric acid [cocrystal 3]”: the Results result in series [1] (75% RH, 4 weeks) was “no dissociation”; in series [1] (94% RH, 4 weeks), “no dissociation”; in series [1] (98% RH, 4 weeks) it was “no dissociation”. Moreover, the “XRPD results when slurrying in water at ambient” value in series [2] (after 5 minutes) is “crystalline pterostilbene”. The “XRPD results, intrinsic dissolution” value in series [7] is “crystalline pterostilbene”.
